Source: PubChem BioAssay (NCI)
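A five-concentration, 48-hour dose response in 96-well plates underlies each endpoint, interpolated linearly between surrounding concentrations. Definition used: TGI = concentration required for complete inhibition of growth.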

What was measured:
Assay in all cases: DTP human tumour cell line panel, 48 h
NCI-H23 lung = system: NCI-H23 lung
HL-60(TB) leukemia = system: HL-60(TB) leukemia
SF-539 CNS = system: SF-539 CNS
786-0 renal = system: 786-0 renal
NCI-H460 lung = system: NCI-H460 lung
A549 NSCLC = system: A549 NSCLC
RPMI-8226 leukemia = system: RPMI-8226 leukemia
MALME-3M melanoma = system: MALME-3M melanoma
SNB-19 CNS = system: SNB-19 CNS
OVCAR-8 ovarian = system: OVCAR-8 ovarian
HOP-92 NSCLC = system: HOP-92 NSCLC
KM12 colon = system: KM12 colon
DU-145 prostate = system: DU-145 prostate

SMILES | TGI (NCI-H23 lung) [µM] | TGI (HL-60(TB) leukemia) [µM] | TGI (SF-539 CNS) [µM] | TGI (786-0 renal) [µM] | TGI (NCI-H460 lung) [µM] | TGI (A549 NSCLC) [µM] | TGI (RPMI-8226 leukemia) [µM] | TGI (MALME-3M melanoma) [µM] | TGI (SNB-19 CNS) [µM] | TGI (OVCAR-8 ovarian) [µM] | TGI (HOP-92 NSCLC) [µM] | TGI (KM12 colon) [µM] | TGI (DU-145 prostate) [µM]
NC(CCCCN=Cc1nc(-c2ccccc2)oc1O)C(=O)O (stereo unspecified) | > 100 | > 100 | > 100 | > 100 | > 100 | > 100 | > 100 | > 100 | > 100 | > 100 | > 100 | – | –
Cc1ccc([N+](=O)[O-])cc1NC(=O)C(=O)Cc1cc(=O)oc2cc(O)ccc12 | > 100 | > 100 | > 100 | > 100 | > 100 | > 100 | 75.3 | > 100 | > 100 | > 100 | > 100 | > 100 | –
COc1cc2c(oc(=O)c3cc4ccoc4c(OC)c32)c2cccc(O)c12 | > 100 | > 100 | > 100 | > 100 | > 100 | > 100 | > 100 | > 100 | > 100 | > 100 | > 100 | > 100 | –
CC(C)C(Sc1nc(-c2ccccc2)c(-c2ccccc2)[nH]1)C(=O)N/N=C/c1ccc([N+](=O)[O-])cc1 (stereo unspecified) | 55.6 | 33.5 | 36.5 | 32.1 | 34.1 | 66.3 | 47.6 | 30 | 41.7 | > 100 | 35.4 | 24.5 | –
C=CCOC(=O)CCCCCCCCCCCCCCCOC(=O)c1c(CCC[C@@H](C)O[Si](C)(C)C(C)(C)C)nc(=O)n2c1CC[C@H]2CC1(CC/C=C\[C@H](CC)O[Si](C(C)C)(C(C)C)C(C)C)OCCO1 | > 100 | – | > 100 | 77.2 | > 100 | > 100 | > 100 | > 100 | > 100 | – | 41.9 | > 100 | > 100
Cc1ccc(S(=O)(=O)N/N=C/c2oc(-c3ccccc3Cl)c(-c3ccccc3Cl)c2[N+](=O)[O-])cc1 | 29.3 | 39.9 | 46.1 | 72 | 29.9 | > 100 | 30.3 | 71.4 | 64 | > 100 | 55 | > 100 | –
CCN(CC)CCNc1ccc2ncn3c4c(OC)cccc4c(=O)c1c23 | 24.5 | – | 22.8 | 75 | 15.2 | 27.6 | – | 21.4 | 46.3 | 55.6 | 18.4 | 17.4 | 24.2
CC(C)CCNC(=O)c1ccc(CNC(=O)/C=C/c2csc(-c3ccccc3)n2)cc1 | > 100 | – | > 100 | > 100 | > 100 | > 100 | > 100 | > 100 | 56.6 | 79.2 | > 100 | > 100 | > 100
c1cc2cc(c1)CN1CCNCCN(CCNCC1)Cc1cccc(c1)CN1CCNCCN(CCNCC1)C2 | > 100 | – | > 100 | > 100 | > 100 | > 100 | > 100 | > 100 | > 100 | > 100 | – | > 100 | > 100
CC1(C)O[C@H]2[C@@H]3N=C(c4ccccc4)O[C@@H]3C=C[C@H]2O1 | > 100 | > 100 | > 100 | > 100 | – | > 100 | > 100 | – | > 100 | > 100 | > 100 | > 100 | > 100
OCCCCn1cc(Cn2ncc3c(SCc4ccccc4)ncnc32)nn1 | > 100 | – | > 100 | > 100 | > 100 | > 100 | > 100 | > 100 | > 100 | > 100 | > 100 | > 100 | > 100
CCOP(=O)(OCC)/C(C#N)=C/c1ccc[nH]1 | > 100 | > 100 | > 100 | > 100 | > 100 | > 100 | > 100 | > 100 | > 100 | > 100 | > 100 | > 100 | –
CCCC(=O)/C=C/S/C=C/C(=O)CCC | 7.7 | – | 27 | 4.98 | > 100 | > 100 | – | 25.4 | 72.3 | 5.46 | – | 37.3 | 27.1
O=C1N(CN2CCOCC2)CN(CN2CCOCC2)C(=O)N1Cc1ccccc1 | 38.9 | – | 38.9 | 71.8 | > 100 | > 100 | 60.3 | 29.5 | > 100 | 43.4 | 73 | 57.4 | 63.9
CCN(CC)c1nc(N(C)C)c2ccc(OC)cc2n1 | > 100 | 17.2 | 49.6 | 89.3 | 26.5 | > 100 | 31 | 55.1 | 70 | > 100 | > 100 | 48.2 | –
COc1ccc(CC2NCCc3cc(OC)c(OC)cc32)cc1 (stereo unspecified) | > 100 | > 100 | > 100 | > 100 | > 100 | > 100 | > 100 | > 100 | > 100 | > 100 | > 100 | > 100 | –
Cc1nc(N)c(N2CCN(Cc3ccccc3)CC2)c(=O)[nH]1 | > 100 | > 100 | > 100 | > 100 | > 100 | > 100 | > 100 | > 100 | > 100 | > 100 | – | > 100 | > 100
O/N=C1/CCCCCC1NO (stereo unspecified) | > 100 | – | > 100 | > 100 | > 100 | > 100 | > 100 | > 100 | > 100 | > 100 | > 100 | > 100 | > 100
COc1ccc(/C=C(\C(=O)OCC(C)C)c2ccc(OC)c(OC)c2)cc1OC | > 100 | > 100 | > 100 | > 100 | > 100 | > 100 | > 100 | – | > 100 | > 100 | > 100 | – | > 100

SMILES | TGI (NCI-H23 lung) [µM] | TGI (HL-60(TB) leukemia) [µM] | TGI (SF-539 CNS) [µM] | TGI (786-0 renal) [µM] | TGI (NCI-H460 lung) [µM] | TGI (A549 NSCLC) [µM] | TGI (RPMI-8226 leukemia) [µM] | TGI (MALME-3M melanoma) [µM] | TGI (SNB-19 CNS) [µM] | TGI (OVCAR-8 ovarian) [µM] | TGI (HOP-92 NSCLC) [µM] | TGI (KM12 colon) [µM] | TGI (DU-145 prostate) [µM]
CC1CC(=O)C(CC(=O)O)C1C(C(=O)C(=O)Nc1c(C#N)cccc1[N+](=O)[O-])[N+](=O)[O-] (stereo unspecified) | > 100 | > 100 | > 100 | > 100 | > 100 | > 100 | > 100 | > 100 | > 100 | > 100 | > 100 | > 100 | –
CC(=O)N1CC[N+](C)(CCCCN2c3ccccc3Sc3cc(N=[N+]=[N-])ccc32)CC1 | > 100 | > 100 | > 100 | > 100 | > 100 | > 100 | > 100 | > 100 | > 100 | > 100 | – | > 100 | > 100
CCN(CC)CCC(=O)N1CCc2c([nH]c3ccccc23)C1c1cccnc1 (stereo unspecified) | > 100 | > 100 | > 100 | > 100 | > 100 | > 100 | > 100 | – | > 100 | > 100 | > 100 | > 100 | –
C[N+](C)(C)Cc1c(CC#N)[nH]c2ccccc12 | > 100 | > 100 | > 100 | > 100 | > 100 | > 100 | > 100 | > 100 | > 100 | > 100 | – | > 100 | –
Fc1ccc(NCn2nc(COc3ccccc3Cl)n(/N=C/c3ccc(-c4ccc(Cl)cc4Cl)o3)c2=S)cc1Cl | > 100 | 48.9 | > 100 | > 100 | > 100 | – | 72 | – | – | > 100 | – | 99 | > 100
O=C(O)C(Cc1cnc[nH]1)N=Cc1nc(-c2ccccc2)oc1O (stereo unspecified) | > 100 | > 100 | > 100 | > 100 | > 100 | > 100 | > 100 | > 100 | > 100 | > 100 | > 100 | – | –
Cc1cc(N(CCC#N)CCC#N)ccc1/C(N=Nc1ccccc1)=N\NC(=O)c1ccccc1 | > 100 | > 100 | 54.1 | 76.6 | 91 | > 100 | > 100 | > 100 | > 100 | 90.7 | – | > 100 | > 100
Nc1ccc(C(=O)NN2C(=O)C(Cl)C2c2ccc([N+](=O)[O-])cc2)cc1 (stereo unspecified) | 35.6 | 4.65 | 25.6 | 16.6 | 22.1 | 25.8 | 42.8 | 25 | 26 | 56 | 37.1 | 23.9 | –
C[C@@H]1OC(=O)C[C@H]2CC(=O)N(CCC3CN(S(=O)(=O)C(F)(F)F)c4ccc(Cc5ccc6c(c5)C(CCN5C[C@H]7[C@@H](CC(=O)O[C@H]7C)CC5=O)CN6S(=O)(=O)C(F)(F)F)cc43)C[C@@H]21 (stereo partly specified) | > 100 | – | 1.84 | > 100 | > 100 | > 100 | > 100 | > 100 | > 100 | > 100 | > 100 | > 100 | > 100
O=C1SC(c2ccccc2)(c2ccccc2)c2ccccc21 | > 100 | > 100 | > 100 | > 100 | > 100 | > 100 | > 100 | > 100 | > 100 | > 100 | – | > 100 | –
CC(=O)OC1(C#N)CC2OC1C1C2N1C(=O)OC(C)(C)C (stereo unspecified) | > 100 | > 100 | > 100 | > 100 | > 100 | > 100 | > 100 | > 100 | > 100 | > 100 | > 100 | – | –
O=c1c2ccccc2c2c1c1c3ccccc3c(=O)c1c1c3ccccc3c(=O)c21 | > 100 | > 100 | > 100 | > 100 | > 100 | > 100 | > 100 | > 100 | > 100 | > 100 | – | > 100 | > 100
CC(=O)O[C@H]1[C@@H](OC2CCCC2(c2ccccc2)c2ccccc2)O[N+]([O-])=C[C@@]12COCc1cc3c(cc12)OCO3 (stereo partly specified) | 52.1 | > 100 | > 100 | 22 | 31.5 | > 45.4 | – | – | 49 | > 100 | 30.7 | 11.3 | > 100
COC(=O)c1cc(-c2ccc(-c3ccc(O)cc3)cc2)cc(-c2ccc(-c3ccc(O)cc3)cc2)c1 | 21 | – | 19.8 | 18.9 | 35 | 20.9 | 27.5 | – | 32.8 | – | 20.9 | 6.82 | –
Cc1cc(Cl)ccc1NC(=O)CC1SC(N)=NC1=O (stereo unspecified) | > 100 | > 100 | > 100 | > 100 | > 100 | > 100 | > 100 | > 100 | > 100 | > 100 | – | > 100 | –
CNC(=O)c1n[nH]n(Cc2ccccc2)c1=S | > 100 | – | – | > 100 | > 100 | > 100 | > 100 | – | > 100 | > 100 | – | > 100 | > 100
Cc1nc2c(n1CCC(C)C)C(=O)c1ccccc1C2=O | 44.9 | 28.1 | 25.4 | > 100 | 21.1 | > 100 | – | 55.3 | > 100 | > 100 | – | > 100 | –
Cc1cc(NS(=O)(=O)c2ccc(NC(=O)c3cccc4cc5ccccc5nc34)cc2)no1 | 39.3 | – | 33.3 | 32.6 | 72.2 | 56.2 | 55.9 | 31.9 | 19.3 | 45.8 | – | 40.7 | –
